Data reported in patent US20030211076A1, “Compositions and methods for treatment of proliferative disorders” (priority 2003, published 2003).

Key:
VEC on Matrigel = assay: Time course of angiogenic response of VEC on Matrigel without Tat stimulation; format: cell-based; details: 6, 24 and 48 h
Procedure: Time course studies on inhibition by LO of angiogenic response of VEC on Matrigel without Tat stimulation was also investigated. Cells (3×10^5) were plated on Matrigel-coated dishes. After 1 h incubation, various reagents were added to each culture. […] At each time point, a, control; b,10 nM LO; c,10 nM LO that was preincubated with 100 μM BAPN for 15 min at 37°; d, 100 μM BAPN, alone.

[1] = system: growth-arrested Swiss 3T3 cells; assay: PDGF-AB-stimulated cell cycle progression, FACS analysis; format: cell-based
Procedure: Growth-arrested Swiss 3T3 cells were incubated for 20 h at 37° C. with or without PDGF-AB, LO, BAPN or their combinations as indicated. After incubation, FACS analysis was carried out to characterize the cell cycle progression under different conditions as described in FIG. 6. FIG. 20A represents a dose response of PDGF-AB in cell cycle progression. FIG. 20B represents the LO inhibition of PDGF-AB-stimulated cell cycle progression (the control represents cells treated with 15 ng ml^−1 PDGF-AB in the absence of added LO). FIG. 20C represents the effects of inactivation of LO by BAPN on PDGF-AB-stimulated the cell cycle progression. LO: 15 nM, PDGF-AB: 15 ng ml^−1, BAPN: 100 AM. Data represent the means (±sd) of three separate experiments each assessed with triplicate dishes.

[2] = system: ERK1 and ERK2 MAP kinases; assay: FGF2-stimulated MAP kinase phosphorylation, Western blot; format: cell-based
Procedure: Since activation of MAP kinases by FGF2 is one of the earliest mitogenic signaling events within cells (Maher), the effects of LO on FGF2-stimulated MAP kinase phosphorylation were tested by Western blot analysis using an antibody specific for phospho-extracellular signal-regulated kinases 1 and 2 (ERK1 and ERK2). The amount of total ERK1 and ERK2 MAP kinases within the same cell extracts was determined by using an antibody that recognizes both the phospho- and non-phospho-forms of ERK1 and ERK2. […] Cell extracts were prepared and equal amounts of proteins (25 μg) were analyzed by 10% SDS-PAGE. Immunoblotting was performed using antibodies specific for the active forms of ERK1 and ERK2 (A) and total ERKs (B).

[3] = system: FGF2 nuclear localization in Swiss 3T3 cells; assay: FGF2 nuclear localization, immunochemical staining; format: cell-based
Procedure: After endocytosis, a fraction of exogenous FGF2 can enter the nucleus of a variety of cell types in a cell cycle-dependent manner (Mason; Rifkin et al.; Prats et al.; Stachowiak et al., 1996; Arese et al.; Baldin et al.). Thus, the possibility that oxidation of FGF2 by LO affects the nuclear localization of this growth factor was tested by using immunochemistry. In FIGS. […]

[4] = system: transformed NIH 3T3 6-1 cells overexpressing FGF2; assay: LO inhibition of tumor cell growth (cell counting, phase-contrast and fluorescent microscopy); format: cell-based, mouse
Procedure: Transformed NIH 3T3 6-1 cells (2×10^4) overexpressing FGF2 were plated and incubated overnight in 35 mm-dishes containing 2 ml 10% fetal bovine serum (FBS)/Dulbecco's Modified Eagle's (DME) medium, and then refed with 0.3% FBS/DMEM with different treatment regimens as shown in FIGS. 9A and 9B. FIG. 9A represents a dose response. Cells were treated with LO at various doses for a total of 6 days. Cultures were refed with fresh media supplemented with LO, as indicated, every two days. After treatment, cells were harvested by trypsinization and counted with a hemacytometer. FIG. 9B represents the effects of inactivation of LO by BAPN on tumor cell growth. LO was present at 25 nM and BAPN at 200 μM as indicated. Data represent the means (±sd) of three separate experiments each assessed with triplicate dishes.
Numerical and morphological alterations in tumor cells treated with LO were observed under phase-contrast microscopy (25×). FIG. 10 comprises the following: A, control; B, 25 nM LO; C, 25 nM LO+200 μM BAPN; D, 200 μM BAPN alone; and E and F, LO uptake by NIH3T3 6-1 cells. In E and F, cells grown on coverslips were exposed to FITC-conjugated LO (0.16 μg/ml) for 2 h, then fixed and examined by fluorescent microscopy (100×).

[5] = system: human recombinant FGF2 (18 kDa); assay: LO-catalyzed crosslinking of 125I-labeled FGF2, SDS-PAGE and autoradiography; format: biochemical; details: 5 μg 125I-FGF2 with 4 μg LO, 37° C., 1 h
Procedure: To determine crosslinking of FGF2 monomers as a result of its oxidation by LO, human recombinant FGF2 (18 kDa) was iodinated and ^1251-labeled FGF2 (5 μg) and was then incubated with 4 μg of LO in 0.1 M sodium borate buffer, pH 8.2 in a final volume of 100 μl, at 37° C. for 1 h. The reaction was quenched by the addition of 100 μM BAPN followed by incubation at 37° C. for 30 min. Aliquots of the incubated reaction mixtures were analyzed by SDS-PAGE (15%) and autoradiography. Lane 1 represents [^125]FGF2; lane 2 represents [^1251]FGF2+LO. The relative electrophoretic mobilities of pre-stained molecular weight standards are indicated under MW.

## N#CCCN [BAPN, β-Aminopropionitrile, reference compound]
VEC on Matrigel; 100 μM BAPN alone
  organization of VEC to form capillary-like structure: did not have significant effects
[1]; 100 μM BAPN with LO 15 nM and 0.56 nM PDGF
  cell cycle progression relative to the level stimulated with PDGF-AB alone: 100.4%
[2]; 5 ng/ml FGF2 + 10 nM LO + 100 μM BAPN
  effect on LO inhibition of FGF2 activation of MAP kinases: abolished
[2]; 100 μM BAPN alone
  state of phosphorylation of MAP kinases: did not affect
[3]; 100 μM BAPN with LO and FGF2
  effect on LO inhibition of nuclear translocation of FGF2: prevented
[3]; BAPN in the absence of added LO
  FGF2 transport to the nucleolus: increased FGF2 transport to the nucleolus
[4]; 200 μM BAPN added with 25 nM LO, 6 days
  proliferation relative to the control: 3 fold
[4]; 200 μM BAPN in the absence of added LO, 6 days
  tumor cell growth relative to the control: 2.5 fold

## lysyl oxidase [LO]
VEC on Matrigel; 10 nM LO preincubated with 100 μM BAPN (BAPN-inactivated)
  organization of VEC to form capillary-like structure: strong inhibitory effects
VEC on Matrigel; 10 nM active LO
  organization of VEC to form capillary-like structure: strong inhibitory effects
[1]; 15 nM (0.48 μg/ml) LO, 0.56 nM PDGF-AB
  decrease of PDGF-AB-induced cell cycle progression: 73%
[2]; 5 ng/ml FGF2 and 10 nM LO, 10 min
  levels of phospho-MAP kinases: reduced
[2]; 10 nM LO without BAPN or FGF2
  levels of phospho-ERK1/2: slightly increased
[3]; LO in the absence of exogenous FGF2 or BAPN
  levels of nuclear FGF2: reduced levels of nuclear FGF2
[3]; simultaneously incubated with FGF2 and 10 nM LO
  intranuclear FGF2: did not exhibit enhanced levels of intranuclear FGF2
[4]; 25 nM LO, 6 days, 0.3% FBS/DMEM
  decrease of cell number compared to the control (maximal inhibition): 95%
[4]; 25 nM LO, phase-contrast microscopy
  numerical and morphological alterations in tumor cells: induced cell death
[5]
  crosslinking of FGF2 monomers: induced the appearance of covalent dimers, oligomers and higher polymers
